{
  "source": "patent US20240024273A1",
  "about": "“TOPICAL ADMINISTRATION OF 2-(DIETHYLAMINO)ETHYL 2-(4-ISOBUTYLPHENYL)PROPRIONATE FOR TREATMENT OF DISEASES” (TECHFIELDS PHARMA CO., LTD., priority 2020, published 2024)",
  "key": {"[1]": {"system": "osteoarthritis of the knee", "assay": "Second Phase 2 study: WOMAC stiffness subscale score", "type": "in vivo, human", "source_text": "For subjects with bilateral knee pain, both knees will be treated, but the most symptomatic knee (ie, the most painful knee as measured by the Western Ontario and McMaster University Osteoarthritis Index [WOMAC® 3.1] pain subscale score at Screening) will be designated as the target knee for efficacy analyses. For subjects with unilateral knee pain, only the symptomatic (target) knee will be treated.\n(§1) The VAS version of the WOMAC will be used for the Primary and Secondary Efficacy Endpoints. Efficacy endpoints will be assessed at Screening and Baseline (Day 1) and at the Week 2, Week 4, Week 8, and Week 12/EOS visits.\n(§2) 4.9.2. Secondary Efficacy Endpoints: • 1. Change from Baseline in the WOMAC (VAS) pain subscale score for the target knee at 2, 8, and 12 weeks of treatment; • 2. Change from Baseline in the WOMAC (VAS) stiffness subscale scores for the target knee and WOMAC (VAS) functional ability subscale scores at 2, 4, 8, and 12 weeks of treatment; • 3. Change from Baseline in the overall WOMAC (VAS) score at 2, 4, 8, and 12 weeks of treatment; • 4. Subject's global assessment of disease status of the target knee at 2, 4, 8, and 12 weeks of treatment; • 5. Subject's global assessment of response to therapy of the target knee at 2, 4, 8, and 12 weeks of treatment; • 6. Amount of rescue medication (acetaminophen) consumed per day for target knee pain.\n(§3) The Secondary Efficacy Endpoints, change from Baseline in the WOMAC subscale scores for pain, stiffness, and functional ability, and overall WOMAC score at 2, 4, 8, and 12 weeks of treatment, will be analyzed using the same methods as for the Primary Efficacy Endpoint."}, "[2]": {"system": "osteoarthritis of the knee", "assay": "Second Phase 2 study: WOMAC overall score", "type": "in vivo, human", "source_text": "This is a Phase 2, multicenter, randomized, double blind (within dose), Ibuprofen-placebo controlled, parallel group, dose range finding study to evaluate the efficacy, safety, and PK of 2-(diethylamino)ethyl 2-(4-isobutylphenyl)propionate spray in adult subjects with clinically symptomatic OA of the knee. For subjects with bilateral knee pain, both knees will be treated, but the most symptomatic knee (ie, the most painful knee as measured by the Western Ontario and McMaster University Osteoarthritis Index [WOMAC® 3.1] pain subscale score at Screening) will be designated as the target knee for efficacy analyses. For subjects with unilateral knee pain, only the symptomatic (target) knee will be treated.\nas §1, §2, §3"}, "[3]": {"conditions": "17.5 mg/knee BID, Week 12, first 130 subjects"}, "[4]": {"conditions": "4.375 mg/knee BID (n = 23), first 130 subjects"}, "[5]": {"conditions": "8.75 mg/knee BID (n = 24), first 130 subjects"}, "[6]": {"conditions": "17.5 mg/knee BID (n = 19), first 130 subjects"}, "[7]": {"conditions": "Week 12, 4.375 mg/knee BID (n = 23), first 130 subjects"}, "[8]": {"conditions": "Week 12, 8.75 mg/knee BID (n = 24), first 130 subjects"}, "[9]": {"conditions": "Week 12, 17.5 mg/knee BID (n = 19), first 130 subjects"}, "[10]": {"conditions": "all subjects, 4.375 mg/knee BID, n = 49, Week 12"}, "[11]": {"conditions": "all subjects, 8.75 mg/knee BID, n = 54, Week 12"}, "[12]": {"conditions": "all subjects, 17.5 mg/knee BID, n = 52, Week 12"}},
  "note": "Where “and” joins values, the source holds several entries; their conditions need not be identical. Equal values may be shown once.",
  "data": [
    {"smiles": "CCN(CC)CCOC(=O)C(C)c1ccc(CC(C)C)cc1", "note": "(stereo not shown) [2-(diethylamino)ethyl 2-(4-isobutylphenyl)propionate]", "values": [
      {"measurement": "WOMAC stiffness, difference from oral ibuprofen", "setting": "[1]; [3]", "value": "−12.4", "unit": "mm"},
      {"measurement": "WOMAC stiffness, difference from placebo", "setting": "[1]; [3]", "value": "−19.1", "unit": "mm"},
      {"measurement": "WOMAC Joint Stiffness Subscale Score, Day 1, Avg.", "setting": "[1]; Avg. of all patients (blinded), Low Dose (2 spray/knee, 8.75 mg/knee) Cohort, Day 1", "value": 64.2},
      {"measurement": "WOMAC Joint Stiffness Subscale Score, Week 2, Avg.", "setting": "[1]; Avg. of all patients (blinded), Low Dose (2 spray/knee, 8.75 mg/knee) Cohort, Week 2", "value": 52.5},
      {"measurement": "WOMAC Joint Stiffness Subscale Score, Week 4, Avg.", "setting": "[1]; Avg. of all patients (blinded), Low Dose (2 spray/knee, 8.75 mg/knee) Cohort, Week 4", "value": 45.7},
      {"measurement": "WOMAC Joint Stiffness Subscale Score, Week 8, Avg.", "setting": "[1]; Avg. of all patients (blinded), Low Dose (2 spray/knee, 8.75 mg/knee) Cohort, Week 8", "value": 42.3},
      {"measurement": "WOMAC Joint Stiffness Subscale Score, Week 12, Avg.", "setting": "[1]; Avg. of all patients (blinded), Low Dose (2 spray/knee, 8.75 mg/knee) Cohort, Week 12", "value": 41.8},
      {"measurement": "WOMAC Stiffness Subscale Scores, Baseline (LS Mean)", "setting": "[1]; [4]", "value": 50.2, "unit": "mm"},
      {"measurement": "WOMAC Stiffness Subscale Scores, Baseline (LS Mean)", "setting": "[1]; [5]", "value": 52.4, "unit": "mm"},
      {"measurement": "WOMAC Stiffness Subscale Scores, Baseline (LS Mean)", "setting": "[1]; [6]", "value": 57.6, "unit": "mm"},
      {"measurement": "WOMAC Stiffness Subscale Scores, % of improvement from Oral Ibuprofen", "setting": "[1]; [7]", "value": 0.6, "unit": "%"},
      {"measurement": "WOMAC Stiffness Subscale Scores, % of improvement from Placebo", "setting": "[1]; [7]", "value": "−9.7", "unit": "%"},
      {"measurement": "WOMAC Stiffness Subscale Scores, % of improvement from baseline", "setting": "[1]; [7]", "value": "−35.9", "unit": "%"},
      {"measurement": "WOMAC Stiffness Subscale Scores, Changes from Baseline (LS Mean)", "setting": "[1]; [7]", "value": "−18.0", "unit": "mm"},
      {"measurement": "WOMAC Stiffness Subscale Scores, Different from placebo (LS Mean)", "setting": "[1]; [7]", "value": "−4.0", "unit": "mm"},
      {"measurement": "WOMAC Stiffness Subscale Scores, Week 12 (LS Mean)", "setting": "[1]; [7]", "value": 32.2, "unit": "mm"},
      {"measurement": "WOMAC Stiffness Subscale Scores, % of improvement from Oral Ibuprofen", "setting": "[1]; [8]", "value": "−2.4", "unit": "%"},
      {"measurement": "WOMAC Stiffness Subscale Scores, % of improvement from Placebo", "setting": "[1]; [8]", "value": "−12.7", "unit": "%"},
      {"measurement": "WOMAC Stiffness Subscale Scores, % of improvement from baseline", "setting": "[1]; [8]", "value": "−38.9", "unit": "%"},
      {"measurement": "WOMAC Stiffness Subscale Scores, Changes from Baseline (LS Mean)", "setting": "[1]; [8]", "value": "−20.4", "unit": "mm"},
      {"measurement": "WOMAC Stiffness Subscale Scores, Different from oral ibuprofen (LS Mean)", "setting": "[1]; [8]", "value": 0.2, "unit": "mm"},
      {"measurement": "WOMAC Stiffness Subscale Scores, Different from placebo (LS Mean)", "setting": "[1]; [8]", "value": "−6.4", "unit": "mm"},
      {"measurement": "WOMAC Stiffness Subscale Scores, Week 12 (LS Mean)", "setting": "[1]; [8]", "value": 32.0, "unit": "mm"},
      {"measurement": "WOMAC Stiffness Subscale Scores, % of improvement from Oral Ibuprofen", "setting": "[1]; [9]", "value": "−21.0", "unit": "%"},
      {"measurement": "WOMAC Stiffness Subscale Scores, % of improvement from Placebo", "setting": "[1]; [9]", "value": "−31.3", "unit": "%"},
      {"measurement": "WOMAC Stiffness Subscale Scores, % of improvement from baseline", "setting": "[1]; [9]", "value": "−57.5", "unit": "%"},
      {"measurement": "WOMAC Stiffness Subscale Scores, Changes from Baseline (LS Mean)", "setting": "[1]; [9]", "value": "−33.1", "unit": "mm"},
      {"measurement": "WOMAC Stiffness Subscale Scores, Different from oral ibuprofen (LS Mean)", "setting": "[1]; [9]", "value": "−12.4", "unit": "mm"},
      {"measurement": "WOMAC Stiffness Subscale Scores, Different from placebo (LS Mean)", "setting": "[1]; [9]", "value": "−19.1", "unit": "mm"},
      {"measurement": "WOMAC Stiffness Subscale Scores, Week 12 (LS Mean)", "setting": "[1]; [9]", "value": 24.6, "unit": "mm"},
      {"measurement": "WOMAC Stiffness Subscale Scores, % of improvement from Oral Ibuprofen", "setting": "[1]; [10]", "value": 4.7, "unit": "%"},
      {"measurement": "WOMAC Stiffness Subscale Scores, % of improvement from Placebo", "setting": "[1]; [10]", "value": "−2.2", "unit": "%"},
      {"measurement": "WOMAC Stiffness Subscale Scores, % of improvement from baseline", "setting": "[1]; [10]", "value": "−34.6", "unit": "%"},
      {"measurement": "WOMAC Stiffness Subscale Scores, Changes from Baseline (LS Mean)", "setting": "[1]; [10]", "value": "−16.9", "unit": "mm"},
      {"measurement": "WOMAC Stiffness Subscale Scores, Week 12 (LS Mean)", "setting": "[1]; [10]", "value": 31.9, "unit": "mm"},
      {"measurement": "WOMAC Stiffness Subscale Scores, % of improvement from Oral Ibuprofen", "setting": "[1]; [11]", "value": "−2.8", "unit": "%"},
      {"measurement": "WOMAC Stiffness Subscale Scores, % of improvement from Placebo", "setting": "[1]; [11]", "value": "−9.7", "unit": "%"},
      {"measurement": "WOMAC Stiffness Subscale Scores, % of improvement from baseline", "setting": "[1]; [11]", "value": "−42.1", "unit": "%"},
      {"measurement": "WOMAC Stiffness Subscale Scores, Changes from Baseline (LS Mean)", "setting": "[1]; [11]", "value": "−23.3", "unit": "mm"},
      {"measurement": "WOMAC Stiffness Subscale Scores, Different from oral ibuprofen (LS Mean)", "setting": "[1]; [11]", "value": "−3.0", "unit": "mm"},
      {"measurement": "WOMAC Stiffness Subscale Scores, Different from placebo (LS Mean)", "setting": "[1]; [11]", "value": "−6.7", "unit": "mm"},
      {"measurement": "WOMAC Stiffness Subscale Scores, Week 12 (LS Mean)", "setting": "[1]; [11]", "value": 32.0, "unit": "mm"},
      {"measurement": "WOMAC Stiffness Subscale Scores, % of improvement from Oral Ibuprofen", "setting": "[1]; [12]", "value": "−8.0", "unit": "%"},
      {"measurement": "WOMAC Stiffness Subscale Scores, % of improvement from Placebo", "setting": "[1]; [12]", "value": "−14.9", "unit": "%"},
      {"measurement": "WOMAC Stiffness Subscale Scores, % of improvement from baseline", "setting": "[1]; [12]", "value": "−47.3", "unit": "%"},
      {"measurement": "WOMAC Stiffness Subscale Scores, Changes from Baseline (LS Mean)", "setting": "[1]; [12]", "value": "−25.2", "unit": "mm"},
      {"measurement": "WOMAC Stiffness Subscale Scores, Different from oral ibuprofen (LS Mean)", "setting": "[1]; [12]", "value": "−4.9", "unit": "mm"},
      {"measurement": "WOMAC Stiffness Subscale Scores, Different from placebo (LS Mean)", "setting": "[1]; [12]", "value": "−8.6", "unit": "mm"},
      {"measurement": "WOMAC Stiffness Subscale Scores, Week 12 (LS Mean)", "setting": "[1]; [12]", "value": 28.1, "unit": "mm"},
      {"measurement": "WOMAC Joint Stiffness Subscale Score, Week 4", "setting": "[1]; individual patient (blinded), Low Dose (2 spray/knee, 8.75 mg/knee) Cohort, Week 4", "value": "59.5 and 62"},
      {"measurement": "WOMAC overall, difference from oral ibuprofen", "setting": "[2]; [3]", "value": "−15.2", "unit": "mm"},
      {"measurement": "WOMAC overall, difference from placebo", "setting": "[2]; [3]", "value": "−18.2", "unit": "mm"},
      {"measurement": "efficacy vs oral ibuprofen (3×400 mg/day)", "setting": "[2]; 17.5 mg/knee BID, all subjects", "value": "higher efficacy than oral ibuprofen (3×400 mg/day), but not significantly"},
      {"measurement": "efficacy vs placebo", "setting": "[2]; 17.5 mg/knee BID, all subjects", "value": "higher efficacy than placebo significantly"},
      {"measurement": "WOMAC Overall Scores, Baseline (LS Mean)", "setting": "[2]; [4]", "value": 59.3, "unit": "mm"},
      {"measurement": "WOMAC Overall Scores, Baseline (LS Mean)", "setting": "[2]; [5]", "value": 60.7, "unit": "mm"},
      {"measurement": "WOMAC Overall Scores, Baseline (LS Mean)", "setting": "[2]; [6]", "value": 63.4, "unit": "mm"},
      {"measurement": "WOMAC Overall Scores, % of improvement from Oral Ibuprofen", "setting": "[2]; [7]", "value": "−10.1", "unit": "%"}
    ]}
  ]
}
